Source: US20230095276A1, “ESTERS OF A RETINOID AND A TOCOPHEROL OR TERT-BUTYLHYDROQUINONE AND PREPARATIONS THEREOF” (Conagen Inc., priority 2021, published 2023)

How the values were obtained:
Format in all cases: cell-based
RAR alpha = biological target: T1, RAR alpha (Homo sapiens, UniProt P10276); test: RAR alpha agonist reporter cell assay (Gal4 DBD receptor hybrid, luciferase); conditions: for Fold Activation: 23 hours, vs DMSO; for agonist activity towards RAR alpha (in words): summary of Table 1
T1 sequence (P10276 183-417 limits assumed): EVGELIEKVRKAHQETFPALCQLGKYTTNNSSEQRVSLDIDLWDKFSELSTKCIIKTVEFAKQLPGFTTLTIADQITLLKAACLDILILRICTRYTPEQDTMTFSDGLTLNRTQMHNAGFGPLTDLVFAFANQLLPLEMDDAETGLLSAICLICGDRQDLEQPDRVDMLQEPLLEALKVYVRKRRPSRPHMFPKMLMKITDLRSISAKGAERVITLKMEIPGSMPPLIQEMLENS
Procedure: (§1) Reporter Cells (Indigo Biosciences, catalog #IB02201, IB02101, IB00821) were used in the assays. The reporter cells expressed a receptor hybrid in which the native N-terminal DNA binding domain (DBD) had been replaced with that of the yeast Gal4 DBD. The reporter gene, firefly luciferase, is functionally linked to the Gal4 upstream activation sequence (UAS). Receptor assays were performed as follows, Steps 1 to 3.
(§2) Step 1: A suspension of Reporter Cells was prepared in Cell Recovery Medium (CRM: containing charcoal-stripped FBS) and 100 μL of the Reporter Cell suspension was dispensed into each of the wells of a white 96-well assay plate. Step 2: Test and reference compound master stocks were prepared as solutions at 1,000× concentration in DMSO relative to the final treatment concentration. This intermediate stock was subsequently diluted directly into INDIGO Biosciences's Compound Screening Medium (CSM; containing charcoal-stripped FBS) to generate ‘2×-concentration’ treatment media. 100 μL of each prepared treatment medium was dispensed into duplicate assay wells pre-dispensed with a 100 μL suspension of Reporter Cells, thereby achieving the desired final treatment concentrations. The concentration of residual DMSO in all assay wells was 0.1% for the test and reference compounds. Assay plates were incubated at 37° C., 5% CO2 and ˜70% humidity for 23 hours. DMSO control was used to determine background activity. Retinoic acid was used with its EC100 concentration to show 100% activity of each receptor. Retinol served as positive control.
(§3) Step 3: Following the incubation period, treatment media were discarded and 100 μL/well of Luciferase Detection Reagent was added per well to determine receptor activity in terms of relative luminescence units (RLUs). Data processing: Fold activation: [Ave RLU Test Cmpd/Ave RLU DMSO].

RAR gamma = RAR gamma agonist reporter cell assay (Gal4 DBD receptor hybrid, luciferase); conditions: for Fold Activation: 23 hours, vs DMSO; for agonist activity towards RAR gamma (in words): summary of Table 1
Procedure: Reporter Cells (Indigo Biosciences, catalog #IB02201, IB02101, IB00821) were used in the assays. The reporter cells expressed a receptor hybrid in which the native N-terminal DNA binding domain (DBD) had been replaced with that of the yeast Gal4 DBD. The reporter gene, firefly luciferase, is functionally linked to the Gal4 upstream activation sequence (UAS). Receptor assays were performed as follows, Steps 1 to 3. Step 1: A suspension of Reporter Cells was prepared in Cell Recovery Medium (CRM: containing charcoal-stripped FBS) and 100 μL of the Reporter Cell suspension was dispensed into each of the wells of a white 96-well assay plate. Step 2: Test and reference compound master stocks were prepared as solutions at 1,000× concentration in DMSO relative to the final treatment concentration. […] The concentration of residual DMSO in all assay wells was 0.1% for the test and reference compounds. Assay plates were incubated at 37° C., 5% CO2 and ˜70% humidity for 23 hours. DMSO control was used to determine background activity. […] Retinol served as positive control. Step 3: Following the incubation period, treatment media were discarded and 100 μL/well of Luciferase Detection Reagent was added per well to determine receptor activity in terms of relative luminescence units (RLUs). Data processing: Fold activation: [Ave RLU Test Cmpd/Ave RLU DMSO].

RAR beta = biological target: T2, RAR beta (Homo sapiens, UniProt P10826); test: RAR beta agonist reporter cell assay (Gal4 DBD receptor hybrid, luciferase); conditions: for Fold Activation: 23 hours, vs DMSO; for agonist activity towards RAR beta (in words): summary of Table 1
T2 sequence (P10826 183-417 limits assumed): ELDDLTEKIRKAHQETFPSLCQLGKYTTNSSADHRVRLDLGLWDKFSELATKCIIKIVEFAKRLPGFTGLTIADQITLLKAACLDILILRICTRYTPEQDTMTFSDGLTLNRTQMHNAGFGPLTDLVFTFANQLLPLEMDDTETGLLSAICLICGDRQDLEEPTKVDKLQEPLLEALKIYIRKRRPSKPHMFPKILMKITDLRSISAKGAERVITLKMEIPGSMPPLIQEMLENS
Procedure: as §1, §2, §3

| SMILES | Fold Activation (RAR alpha; RAR alpha, 0.01 μM) | Fold Activation (RAR alpha; RAR alpha, 0.1 μM) | Fold Activation (RAR alpha; RAR alpha, 1 μM) | agonist activity towards RAR alpha (in words) (RAR alpha) | Fold Activation (RAR gamma; RAR gamma, 0.01 μM) | Fold Activation (RAR gamma; RAR gamma, 0.1 μM) | Fold Activation (RAR gamma; RAR gamma, 1 μM) | agonist activity towards RAR gamma (in words) (RAR gamma) | Fold Activation (RAR beta; RAR beta, 0.01 μM) | Fold Activation (RAR beta; RAR beta, 0.1 μM) | Fold Activation (RAR beta; RAR beta, 1 μM) | agonist activity towards RAR beta (in words) (RAR beta) | activity compared with retinoic acid (RAR alpha; RAR alpha) | activity compared with retinol (RAR alpha; RAR alpha, all tested concentrations) | activity compared with retinoic acid (RAR gamma; RAR gamma) | activity compared with retinol (RAR gamma; RAR gamma, all tested concentrations) | activity compared with retinoic acid (RAR beta; RAR beta) | activity compared with retinol (RAR beta; RAR beta, all tested concentrations) |
| --- | --- | --- | --- | --- | --- | --- | --- | --- | --- | --- | --- | --- | --- | --- | --- | --- | --- | --- |
| CC1=C(/C=C/C(C)=C/C=C/C(C)=C/C(=O)Oc2c(C)c(C)c3c(c2C)CCC(C)(CCCC(C)CCCC(C)CCCC(C)C)O3)C(C)(C)CCC1 (racemic) [(±)α-tocopheryl retinoate] | 1.27 fold | 9.14 fold | 552 fold | exhibited agonist activity | 1.79 fold | 23.8 fold | 365 fold | exhibited agonist activity | 0.882 fold | 6.33 fold | 149 fold | exhibited agonist activity | – | – | – | – | – | – |
| CC1=C(/C=C/C(C)=C/C=C/C(C)=C/C(=O)Oc2ccc(O)c(C(C)(C)C)c2)C(C)(C)CCC1 [3-tert-Butyl-4-hydroxyphenyl retinoate, 3-tert-butyl-4-hydroxyphenyl retinoate] | 1,573 fold | 2,768 fold | 3,414 fold | exhibited agonist activity | 541 fold | 1,010 fold | 701 fold | exhibited agonist activity | 232 fold | 287 fold | 331 fold | exhibited agonist activity | comparable activity to retinoic acid | higher activity than retinol at all tested concentrations | comparable activity to retinoic acid | higher activity than retinol at all tested concentrations | comparable activity to retinoic acid | higher activity than retinol at all tested concentrations |
| CC1=C(/C=C/C(C)=C/C=C/C(C)=C/C(=O)Oc2cc(C)c3c(c2)CC[C@@](C)(CCC[C@H](C)CCC[C@H](C)CCCC(C)C)O3)C(C)(C)CCC1 [(+)δ-Tocopheroyl retinoate, (+)δ-tocopheroyl retinoate] | 0.620 fold | 5.25 fold | 251 fold | exhibited agonist activity | 1.10 fold | 8.45 fold | 315 fold | exhibited agonist activity | 1.57 fold | 3.96 fold | 53.4 fold | exhibited agonist activity | – | – | – | – | – | – |
| CC1=C(/C=C/C(C)=C/C=C/C(C)=C/C(=O)O)C(C)(C)CCC1 [Retinoic acid, reference compound] | – | – | – | – | – | 706 fold | – | – | – | – | – | – | – | – | – | – | – | – |
| CC1=C(/C=C/C(C)=C/C=C/C(C)=C/CO)C(C)(C)CCC1 [Retinol, reference compound] | 1.77 fold | 6.35 fold | 518 fold | – | 2.28 fold | 18.5 fold | 368 fold | – | 1.63 fold | 4.91 fold | 127 fold | – | – | – | – | – | – | – |
